From US20160095843A1, “PYRAZOLOPYRROLIDINE DERIVATIVES AND THEIR USE IN THE TREATMENT OF DISEASE” (NOVARTIS AG, priority 2013, published 2016)

How the values were obtained:
MV-4-11 cells = assay: Cell growth inhibition assay (CellTiter-Glo), MV-4-11; type: cell-based; conditions: Homo sapiens, MV4-11
How it was run: (§1)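 Leukemia lines grown in their own media were exposed for 4 days at 37° C. to 3-fold serial dilutions from 10 μM (0.1% DMSO). Viability by CellTiter-Glo ATP luminescence, corrected for background and day-0 plate; IC50 and TGI from four-parameter fit against vehicle (100%) and medium (−100%).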

THP-1 cells = assay: Cell growth inhibition assay (CellTiter-Glo), THP-1; type: cell-based; conditions: Homo sapiens
How it was run: as §1

K-562 cells = assay: Cell growth inhibition assay (CellTiter-Glo), K-562; type: cell-based, human; conditions: Homo sapiens, K562
How it was run: as §1

[1] = target: T1, nuclear BRD4-NUT foci in HCC2494 NUT midline carcinoma cells (Homo sapiens, UniProt O60885+Q86Y26); assay: Nut-foci formation assay; type: cell-based; conditions: 24 hours, NUT-foci per nucleus, read-out: HCS Brd4-NUT IC50
T1 construct: HCC2494 NUT midline carcinoma cells (expressing BRD4-NUT-fusion)
Method: HCC2494 NUT midline carcinoma cells (expressing BRD4-NUT-fusion) were obtained from the University of Texas Southwestern and cultured in RPMI-1640 medium containing 10% Foetal Calf Serum at 37° C. in a humidified 5% CO2 incubator.
Compound-mediated inhibition of BRD4 activity was monitored by quantification of the number and intensity of nuclear BRD4-NUT foci using automated immunofluorescence microscopy. Briefly, 5000 cells in 20 μL fresh medium were seeded into Poly-D-Lysine-precoated 384-well plates and incubated overnight at 37° C. and 5% CO2, followed by addition of 5 μl medium containing compound dilutions at 5-fold their final intended concentration. Dose-response effects were assessed by 3-fold serial dilutions of the test compound, starting at 10 μM. […] Assay plates were imaged using the appropriate filter sets on the Cellomics VTi automated fluorescence microscopy platform (ThermoFisher Scientific) and the population average of the number of NUT-foci per nucleus is quantified using the Cellomics Spot Detection BioApplication image analysis algorithm (ThermoFisher Scientific). The effect of a particular test compound concentration on NUT-foci number and intensity is expressed as percentage of the value obtained for cells treated with vehicle only (DMSO, 0.1% final concentration), which was set as 100. […]

GI50 (MV-4-11 cells): 84 nM
GI50 (THP-1 cells): 112 nM
GI50 (K-562 cells): 511 nM
IC50 [1]: 151 nM
SMILES: CNc1cc(N2C(=O)c3c(c(C)nn3C3CC3)C2c2ccc(Cl)cc2)nn2c(C)nnc12 (racemic) [Example 113, 4-(4-chlorophenyl)-1-cyclopropyl-3-methyl-5-(3-methyl-8-(methylamino)-[1,2,4]triazolo[4,3-b]pyridazin-6-yl)-4,5-dihydropyrrolo-[3,4-c]pyrazol-6(1H)-one]
IC (TGI) (MV-4-11 cells): 127 nM
IC (TGI) (THP-1 cells): 234 nM
IC (TGI) (K-562 cells): > 10000 nM
